Calls of active or inactive are those of the source. The rule behind the calls is not given here.
What was measured:
[1] = system: Human immunodeficiency virus 1; assay: Ratio of EC50 for wild type HIV1 NL4-3 to EC50 for HIV1 NL4-3 harboring reverse transcriptase L234I mutant; assay type: functional
[2] = system: Human immunodeficiency virus 1; assay: Ratio of EC50 for wild type HIV1 NL4-3 to EC50 for HIV1 NL4-3 harboring reverse transcriptase Y188C mutant; assay type: functional
[3] = system: Human immunodeficiency virus type 1 reverse transcriptase (Human immunodeficiency virus 1), Q72547 [Y181I]; assay: Inhibition of HIV1 histidine-tagged reverse transcriptase Y181I mutant activity by primer extension assay
[4] = Ratio of CC30 for human PBL cells to EC90 for HIV1
[5] = system: Human immunodeficiency virus 1; assay: Ratio of EC50 for wild type HIV1 NL4-3 to EC50 for HIV1 NL4-3 harboring reverse transcriptase V106A mutant; assay type: functional
[6] = system: Human immunodeficiency virus type 1 reverse transcriptase (Human immunodeficiency virus 1), Q72547 [F227L]; assay: Inhibition of HIV1 histidine-tagged reverse transcriptase F227L mutant activity by primer extension assay
[7] = system: Human immunodeficiency virus 1; assay type: functional, organism-based; settings: NL4-3, HeLaP4
[8] = target: Acetylcholinesterase (Homo sapiens) (UniProt P22303); assay: Inhibition of human acetylcholinesterase at up to 10 uM
Acetylcholinesterase (Homo sapiens), sequence (P22303 whole entry): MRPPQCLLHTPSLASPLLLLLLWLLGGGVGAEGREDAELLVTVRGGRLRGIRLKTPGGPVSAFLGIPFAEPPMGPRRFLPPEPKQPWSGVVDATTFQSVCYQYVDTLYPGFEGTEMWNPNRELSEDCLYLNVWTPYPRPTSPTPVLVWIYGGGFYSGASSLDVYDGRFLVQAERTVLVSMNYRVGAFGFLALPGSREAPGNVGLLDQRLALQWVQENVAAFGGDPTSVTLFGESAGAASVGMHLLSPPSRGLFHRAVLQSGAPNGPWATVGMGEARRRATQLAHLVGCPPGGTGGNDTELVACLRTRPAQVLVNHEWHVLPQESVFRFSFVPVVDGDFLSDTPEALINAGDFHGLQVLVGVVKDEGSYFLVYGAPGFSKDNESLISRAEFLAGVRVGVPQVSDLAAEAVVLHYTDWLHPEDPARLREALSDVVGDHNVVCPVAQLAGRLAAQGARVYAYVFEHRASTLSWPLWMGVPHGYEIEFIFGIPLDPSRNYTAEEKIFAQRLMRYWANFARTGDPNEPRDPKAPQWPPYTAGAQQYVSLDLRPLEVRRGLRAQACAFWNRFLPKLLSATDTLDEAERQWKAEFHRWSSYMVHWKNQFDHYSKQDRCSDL

[9] = target: Histamine H1 receptor (Homo sapiens) (UniProt P35367); assay: Inhibition of human histamine H1 receptor at up to 10 uM
Histamine H1 receptor (Homo sapiens), sequence (P35367 whole entry): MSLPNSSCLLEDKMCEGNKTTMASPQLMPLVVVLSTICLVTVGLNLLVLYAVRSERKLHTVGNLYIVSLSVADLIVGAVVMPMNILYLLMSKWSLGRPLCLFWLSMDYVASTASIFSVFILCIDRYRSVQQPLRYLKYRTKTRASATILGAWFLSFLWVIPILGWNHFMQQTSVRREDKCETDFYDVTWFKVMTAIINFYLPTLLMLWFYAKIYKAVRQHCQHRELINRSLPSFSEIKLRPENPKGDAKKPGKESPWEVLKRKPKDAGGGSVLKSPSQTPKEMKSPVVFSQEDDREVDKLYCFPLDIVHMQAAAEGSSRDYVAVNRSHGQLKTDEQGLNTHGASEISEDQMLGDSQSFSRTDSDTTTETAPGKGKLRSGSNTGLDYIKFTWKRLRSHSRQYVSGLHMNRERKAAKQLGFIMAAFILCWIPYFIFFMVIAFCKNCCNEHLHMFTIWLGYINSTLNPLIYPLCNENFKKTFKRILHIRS

[10] = system: Human immunodeficiency virus 1; assay: Antiviral activity against HIV1 NL4-3 harboring reverse transcriptase E138K mutant infected in human HeLaP4 cells assessed as inhibition of viral replication after 5 days by beta-galactosidase reporter assay; assay type: functional, organism-based
[11] = system: Human immunodeficiency virus 1; assay type: functional, organism-based; settings: NL4-3, HeLaP4; remark: listed apart in the source
[12] = target: Adrenergic receptor alpha-2 (Homo sapiens) (UniProt P08913+P18825+P18089); assay: Inhibition of human adrenergic alpha2 receptor at up to 10 uM
[13] = system: Human immunodeficiency virus type 1 reverse transcriptase (Human immunodeficiency virus 1), Q72547 [V106A]; assay: Inhibition of HIV1 histidine-tagged reverse transcriptase V106A mutant activity by primer extension assay
[14] = organism: Homo sapiens; assay: Inhibition of human tyrosine hydroxylase at up to 10 uM
[15] = target: Glutamate [NMDA] receptor (Homo sapiens) (UniProt Q05586+Q12879+Q13224+O15399+O60391+Q14957+Q8TCU5); assay: Inhibition of human NMDA receptor at up to 10 uM
[16] = system: Human immunodeficiency virus 1; assay: Antiviral activity against HIV1 NL4-3 harboring reverse transcriptase L100I, K103Q, H221H/Y mutant infected in human SupT1 cells derived from 11 viral passages with efavirenz assessed as inhibition of viral replication after 21 days relative to drug sensitive HIV1 NL4-3; assay type: functional, SUP-T1
[17] = organism: Homo sapiens; assay: Inhibition of human L-type calcium channel diltiazem binding site at up to 10 uM
[18] = system: Human immunodeficiency virus 1; assay: Antiviral activity against HIV1 NL4-3 harboring reverse transcriptase V108I, H221Y, F227F/L, M230M/I mutant infected in human SupT1 cells derived from 11 viral passages with lersivirine assessed as inhibition of viral replication after 21 days relative to drug sensitive HIV1 NL4-3; assay type: functional, SUP-T1
[19] = target: Human immunodeficiency virus type 1 reverse transcriptase (Human immunodeficiency virus 1, UniProt Q72547, K103N); assay: Inhibition of HIV1 HXB2 reverse transcriptase K103N mutant activity by primer extension assay
[20] = system: Human immunodeficiency virus type 1 reverse transcriptase (Human immunodeficiency virus 1), Q72547 [K103N]; assay: Inhibition of HIV1 histidine-tagged reverse transcriptase K103N mutant activity by primer extension assay
[21] = system: Human immunodeficiency virus type 1 reverse transcriptase (Human immunodeficiency virus 1), Q72547 [M184V]; assay: Inhibition of HIV1 histidine-tagged reverse transcriptase M184V mutant activity by primer extension assay
[22] = target: 5-hydroxytryptamine receptor 1A (Homo sapiens) (UniProt P08908); assay: Inhibition of human 5-HT1A receptor at up to 10 uM
5-hydroxytryptamine receptor 1A (Homo sapiens), sequence (P08908 whole entry): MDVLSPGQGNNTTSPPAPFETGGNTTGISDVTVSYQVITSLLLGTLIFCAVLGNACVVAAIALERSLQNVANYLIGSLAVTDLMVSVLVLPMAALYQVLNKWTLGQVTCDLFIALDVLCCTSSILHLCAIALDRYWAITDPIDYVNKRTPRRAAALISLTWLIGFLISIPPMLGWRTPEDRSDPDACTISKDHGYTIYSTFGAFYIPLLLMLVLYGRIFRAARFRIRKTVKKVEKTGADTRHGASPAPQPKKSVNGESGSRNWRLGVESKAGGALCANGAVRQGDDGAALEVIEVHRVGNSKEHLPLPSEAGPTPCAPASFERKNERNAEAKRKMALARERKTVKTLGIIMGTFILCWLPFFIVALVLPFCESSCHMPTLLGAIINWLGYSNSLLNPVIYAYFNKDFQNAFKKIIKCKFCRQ

[23] = organism: Homo sapiens; assay: Inhibition of human L-type calcium channel verapamil binding site at up to 10 uM
[24] = target: Human immunodeficiency virus type 1 reverse transcriptase (Human immunodeficiency virus 1, UniProt Q72547); assay: Inhibition of HIV1 reverse transcriptase activity by primer extension assay
[25] = system: Human immunodeficiency virus 1; assay: Ratio of EC50 for wild type HIV1 NL4-3 to EC50 for HIV1 NL4-3 harboring reverse transcriptase V108I mutant; assay type: functional
[26] = system: Human immunodeficiency virus 1; assay: Antiviral activity against HIV1 NL4-3 harboring reverse transcriptase K101E mutant infected in human HeLaP4 cells assessed as inhibition of viral replication after 5 days by beta-galactosidase reporter assay; assay type: functional, organism-based
[27] = system: Human immunodeficiency virus 1; assay: Antiviral activity against HIV1 NL4-3 harboring reverse transcriptase P236L mutant infected in human HeLaP4 cells assessed as inhibition of viral replication after 5 days by beta-galactosidase reporter assay; assay type: functional, organism-based
[28] = target: Amine oxidase [flavin-containing] B (Homo sapiens, UniProt P27338); assay: Inhibition of human MAO-B at up to 10 uM
Amine oxidase [flavin-containing] B, sequence (P27338 whole entry): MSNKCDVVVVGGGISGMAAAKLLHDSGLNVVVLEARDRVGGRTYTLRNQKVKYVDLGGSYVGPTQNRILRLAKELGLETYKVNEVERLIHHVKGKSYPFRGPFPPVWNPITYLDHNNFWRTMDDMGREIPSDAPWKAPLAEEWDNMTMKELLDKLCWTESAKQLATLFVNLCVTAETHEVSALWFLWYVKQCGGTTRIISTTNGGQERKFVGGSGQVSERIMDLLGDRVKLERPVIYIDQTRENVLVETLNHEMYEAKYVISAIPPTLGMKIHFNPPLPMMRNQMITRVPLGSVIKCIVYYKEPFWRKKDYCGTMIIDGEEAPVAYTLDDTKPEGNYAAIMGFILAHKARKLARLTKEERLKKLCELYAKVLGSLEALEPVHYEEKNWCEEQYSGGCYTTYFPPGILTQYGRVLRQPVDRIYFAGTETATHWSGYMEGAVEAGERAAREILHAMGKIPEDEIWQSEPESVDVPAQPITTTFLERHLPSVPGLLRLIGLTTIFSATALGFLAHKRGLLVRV

[29] = target: Adrenergic receptor alpha-1 (Homo sapiens) (UniProt P35348+P25100+P35368); assay: Inhibition of human adrenergic alpha1 receptor at up to 10 uM
[30] = system: PBMC; assay: Cytotoxicity against human PBMC cells by aqueous nonradioactive cell proliferation assay; assay type: cell-based
[31] = system: Human immunodeficiency virus type 1 reverse transcriptase (Human immunodeficiency virus 1), Q72547 [K103N]; assay: Binding affinity to HIV1 HXB2 reverse transcriptase K103N mutant by protein X-ray crystallography analysis
[32] = system: Human immunodeficiency virus 1; assay: Antiviral activity against HIV1 NL4-3 harboring reverse transcriptase V108I mutant infected in human HeLaP4 cells assessed as inhibition of viral replication after 5 days by beta-galactosidase reporter assay; assay type: functional, organism-based
[33] = target: Muscarinic acetylcholine receptor (Homo sapiens) (UniProt P20309+P08173+P11229+P08172+P08912); assay: Inhibition of human non-selective muscarinic receptor at up to 10 uM; assay type: protein assay
[34] = target: D(1A) dopamine receptor (Homo sapiens) (UniProt P21728); assay: Inhibition of human dopamine D1 receptor at up to 10 uM
D(1A) dopamine receptor (Homo sapiens), sequence (P21728 whole entry): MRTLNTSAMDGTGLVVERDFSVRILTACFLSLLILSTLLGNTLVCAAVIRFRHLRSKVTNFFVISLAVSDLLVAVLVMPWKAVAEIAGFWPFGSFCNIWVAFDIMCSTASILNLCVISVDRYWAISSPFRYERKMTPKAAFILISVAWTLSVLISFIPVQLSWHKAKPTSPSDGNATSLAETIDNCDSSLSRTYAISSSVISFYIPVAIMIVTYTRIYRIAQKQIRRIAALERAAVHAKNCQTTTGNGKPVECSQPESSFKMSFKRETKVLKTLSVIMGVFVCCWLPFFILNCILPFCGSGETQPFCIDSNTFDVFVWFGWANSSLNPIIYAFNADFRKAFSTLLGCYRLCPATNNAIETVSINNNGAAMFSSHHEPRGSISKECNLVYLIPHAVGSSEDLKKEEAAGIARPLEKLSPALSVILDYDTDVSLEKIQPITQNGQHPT

[35] = Ratio of CC30 for human HeLaP4 cells to EC90 for HIV1
[36] = system: Human immunodeficiency virus type 1 reverse transcriptase (Human immunodeficiency virus 1), Q72547 [E138K]; assay: Inhibition of HIV1 histidine-tagged reverse transcriptase E138K mutant activity by primer extension assay
[37] = system: Human immunodeficiency virus 1; assay: Antiviral activity against HIV1 NL4-3 infected in human SupT1 cells derived from 11 viral passages assessed as inhibition of viral replication after 21 days relative to drug sensitive HIV1 NL4-3; assay type: functional, SUP-T1
[38] = system: Human immunodeficiency virus 1; assay: Antiviral activity against HIV1 NL4-3 harboring reverse transcriptase Y188C mutant infected in human HeLaP4 cells assessed as inhibition of viral replication after 5 days by beta-galactosidase reporter assay; assay type: functional, organism-based
[39] = organism: Homo sapiens; assay: Inhibition of human central benzodiazepine receptor at up to 10 uM
[40] = system: Human immunodeficiency virus 1; assay: Ratio of EC50 for wild type HIV1 NL4-3 to EC50 for HIV1 NL4-3 harboring reverse transcriptase E233V mutant; assay type: functional
[41] = target: D(2) dopamine receptor (Homo sapiens) (UniProt P14416); assay: Inhibition of human dopamine D2 receptor at up to 10 uM
D(2) dopamine receptor (Homo sapiens), sequence (P14416 whole entry): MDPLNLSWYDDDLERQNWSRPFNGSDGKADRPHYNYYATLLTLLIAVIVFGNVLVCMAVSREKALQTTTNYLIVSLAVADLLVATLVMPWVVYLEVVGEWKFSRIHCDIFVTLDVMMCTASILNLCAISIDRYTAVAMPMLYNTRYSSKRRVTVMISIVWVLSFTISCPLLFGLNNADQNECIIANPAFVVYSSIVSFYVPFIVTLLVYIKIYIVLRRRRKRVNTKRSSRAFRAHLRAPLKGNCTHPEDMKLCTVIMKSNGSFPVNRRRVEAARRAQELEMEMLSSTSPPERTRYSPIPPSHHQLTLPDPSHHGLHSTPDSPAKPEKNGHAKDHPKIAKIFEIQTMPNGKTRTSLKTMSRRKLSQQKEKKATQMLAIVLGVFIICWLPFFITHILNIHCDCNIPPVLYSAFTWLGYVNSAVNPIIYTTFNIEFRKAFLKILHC

CCc1nn(CCO)c(CC)c1Oc1cc(C#N)cc(C#N)c1 [LERSIVIRINE]
Ratio EC50 [1]: 20
Ratio EC50 [2]: 10
inhibition [3]: Active
Ratio [4]: 9818
Ratio EC50 [5]: 10
inhibition [6]: Active
inhibition [7]: Active
inhibition [8]: inactive
inhibition [9]: inactive
inhibition [10]: Active
inhibition [11]: Active
inhibition [12]: inactive
inhibition [13]: Active
inhibition [14]: inactive
inhibition [15]: inactive
fold change (FC) [16]: 5
inhibition [17]: inactive
fold change (FC) [18]: 60.5
IC50 [19]: 215 nM
inhibition [20]: Active
inhibition [21]: Active
inhibition [22]: inactive
inhibition [23]: inactive
IC50 [24]: 118 nM
Ratio EC50 [25]: 10
inhibition [26]: Active
inhibition [27]: Active
inhibition (INH) [28]: Not Active
inhibition [29]: inactive
CC30 [30]: 96900 nM
Activity [31]: Active
inhibition [32]: Active
inhibition [33]: inactive
inhibition [34]: inactive
Ratio [35]: >7092
inhibition [36]: Active
fold change (FC) [37]: 0.6
inhibition [38]: Active
inhibition [39]: inactive
Ratio EC50 [40]: 10
inhibition [41]: inactive

Reference: ChEMBL document CHEMBL1687773 (Antimicrob Agents Chemother, 2010)
